Experiments:
Assay type in all cases: cell-based
mature biofilms = assay: Biofilm eradication; conditions: mature 24-h-old biofilms
Protocol: Analysis of biofilm eradication. Biofilm eradication activity of the tested compounds determined against mature 24-h-old biofilms was performed as previously described (Pompilio et al., 2015). […] Untreated biofilm samples were used as control. Biofilms were quantified by measuring the absorbance at 600 nm. […] Concentrations were tested in five replicates, and three independent experiments were performed.

S. aureus ATCC 29213 = assay: Biofilm inhibition, crystal violet staining (MBIC50); conditions: double-dilution method; Table 1; read-out: MBIC50, strain B
Protocol: (§1) Analysis of biofilm inhibition. The assay was performed as previously described (Joseph et al., 2016; Feldman et al., 2012) with minor modifications. […] Next, 100 μL of serial 1:2 dilutions of compounds in TSB+1% glucose (32, 16, 8, 4, 2, 1, and 0.5 μg/mL) were prepared in flat-bottomed 96-well microplates (Costar, Corning). Control wells with no compounds and wells without bacteria containing each tested concentration of the compounds (blanks) were also prepared. An equal volume (100 μL) of bacterial suspensions diluted 1:100 (OD600=0.01) or 1:10 (OD600=0.1) in TSB+1% glucose was added to each well. […] The wells were vigorously rinsed at least four times with doubly distilled water (DDW). Next, 0.4% crystal violet (200 μL) was added to each well. After 45 min, wells were vigorously rinsed three times with DDW to remove unbound dye. After adding 200 μL of 30% acetic acid to each well, the plate was shaken for 15 min to release the dye. Biofilm formation was quantified by measuring the difference between absorbance of untreated and treated bacterial samples for each tested concentration of the compounds and the absorbance of appropriate blank well at 600 nm (A600) using Tecan plate reader. The MBIC50 was defined as the lowest concentration at which at least 50% reduction in biofilm formation was measured compared to untreated cells. Each concentration of compound was tested in five replicates, and three to six independent experiments were performed.

[1] = tested on: S. aureus subsp. aureus Rosenbach ATCC 33592 (MRSA); assay: as above; conditions: double-dilution method; Table 1; read-out: MBIC50, strain A
Protocol: as §1

S. epidermidis RP62A = assay: as above; conditions: double-dilution method; Table 1; read-out: MBIC50, strain E
Protocol: as §1

E. faecalis ATCC 29212 = assay: as above; conditions: double-dilution method; Table 1; read-out: MBIC50, strain D
Protocol: as §1

S. aureus BAA/043 = assay: as above; conditions: double-dilution method; Table 1; read-out: MBIC50, strain C
Protocol: as §1

S. mutans ATCC 700610 = assay: as above; conditions: double-dilution method; Table 1; read-out: MBIC50, strain F
Protocol: as §1

[2] = tested on: tested biofilm-forming Gram-positive pathogens; assay: Biofilm inhibition, statements over all tested strains; conditions: highest concentration tested
Protocol: as §1, with “Each concentration of compound was tested in five replicates, and three to six independent experiments were performed.” left out

Compound	Eradication of mature biofilms (mature biofilms)	IC50 (S. aureus ATCC 29213) [µM]	IC50 [1] [nM]	IC50 (S. epidermidis RP62A) [µM]	IC50 (E. faecalis ATCC 29212) [nM]	IC50 (S. aureus BAA/043) [µM]	IC50 (S. mutans ATCC 700610) [µM]	Biofilm formation: no inhibition up to (concentration) [2] [µM]
deca-trimethylammonium pillar[5]arene [Compound 21]	did not eradicate mature biofilms	3.5	900	3.5	900	3.5	1.8	
deca-N-methyl-imidazolium pillar[5]arene [Compound 22]		1.6	800	3.2	400	1.6	6.4	
C[N+](C)(C)C.[Cl-] [TMA—Cl, tetramethylammonium chloride]		> 292	> 292000	> 292	> 292000	> 292	> 292	> 208
C[N+](C)(C)C.[Br-] [TMA—Br, tetramethylammonium bromide]		> 208	> 208000	> 208	> 208000	> 208	> 208	> 292
